Conditions: ICR mice, intravenous injection

CC[C@@]1(O)C[C@H](O[C@H]2C[C@H](N3CCOCC3)[C@H](O)[C@H](C)O2)c2c(O)c3c(c(O)c2[C@H]1O)C(=O)c1cccc(O)c1C3=O [M-R20X2, 3'-deamino-3'-(4-morpholinyl)-13-deoxo-10-hydroxycarminomycin]
LD50: 3.55 mg/kg

Source: patent publication US4877870A, “Process for producing 10-hydroxyanthracyclines” (Kirin Beer Kabushiki Kaisha, priority 1986, dated 1989)
